Assay results taken from patent US5559115A, “Oncogene function-inhibitory agent, method for inhibiting oncogene function, and treatment of cancer” (Terumo Kabushiki Kaisha, priority 1993, dated 1996).
In brackets after ≈: the same amount, converted by molar mass. Entries after “also recorded” stand apart in the source; their conditions may differ. Read-outs that look alike come from different tables or passages of the source.

Legend:
[1] = tested on: K-ras^ts NRK cells; assay: Propagation inhibitory effect on K-ras^ts NRK cells; format: cell-based, rat; settings: for IC50: Rattus norvegicus, NRK, 72 h, K-ras^ts NRK, 3 days, read-out: IC50, cell propagation
Experimental: (§1) Normal rat kidney cell, NRK-49 (Dainihon Pharmaceutical K.K.) and normal mouse cell, NIH 3T3 (JCRB Cell Bank); and K-ras NIH 3T3, H-ras NIH 3T3, and N-ras NIH 3T3 (Tokyo University, Medical Science Institute, Japan) which are cell lines that have been transformed with Kirsten sarcoma virus, Harvey sarcoma virus, and neuroblastoma virus, respectively, were incubated at 37° C. in the similar manner.
Cells of K-ras^ts -NRK were inoculated in wells of 24 wells plastic plate (Costar 3524, manufactured by Costar) at 1.0×10^4 /DMEM 1 ml/well, and the plate was incubated in an incubator of 5% CO2 at 33° C. for one day. III-121C was added to the thus incubated cells to different concentrations and the incubation was continued. After predetermined periods, the medium was removed of the cell culture, and cells were peeled off the wall of the well by using trypsin. DMEM was added to the well to uniformly suspend the cells, and the cell concentration in the suspension was measured with Coulter counter (ZM type manufactured by Coulter Electronics) to obtain the results shown in FIG. 7.
(§2) Next, cells of different types were inoculated in wells of 12 wells plastic plate (Costar 3521, manufactured by Costar) at 2.0×10^4 /DMEM 1 ml/well, and the plate was incubated in an incubator of 5% CO2 for one day. III-121C was added to the thus incubated cells to different concentrations and incubation was continued for another 3 days. The number of cells was measured by repeating the above-described procedure to determine the concentration (IC50) of the III-121C required to inhibit the cell propagation to 50%.

[2] = tested on: K-ras NRK cells; assay: Propagation inhibitory effect on K-ras NRK cells; format: cell-based; settings: Rattus norvegicus, 72 h, 3 days, read-out: IC50, cell propagation
Experimental: as §2

[3] = tested on: NRK cells; assay: Propagation inhibitory effect on NRK cells; format: cell-based; settings: Rattus norvegicus, 72 h, 3 days, read-out: IC50, cell propagation
Experimental: as §1, §2

[4] = tested on: K-ras-NIH 3T3 cells; assay: Propagation inhibitory effect on K-ras-NIH 3T3 cells; format: cell-based; settings: Mus musculus, NIH3T3, 72 h; K-ras-NIH 3T3, 3 days; read-out: IC50, cell propagation
Experimental: as §1, §2

[5] = tested on: NIH 3T3 cells; assay: Propagation inhibitory effect on NIH 3T3 cells; format: cell-based; settings: Mus musculus, NIH3T3, 72 h; NIH 3T3, 3 days; read-out: IC50, cell propagation
Experimental: as §1, §2

[6] = tested on: K-ras^ts-NRK cells; assay: Activity to induce changes in cell morphology, K-ras^ts-NRK cells; format: cell-based, rat; settings: 2 days
Experimental: as §1
(§3) The effect of the III-121C on various types of cultured cells was evaluated by inoculating each type of cells in wells of 24 wells plastic plate (Costar 3524, manufactured by Costar) at 3×10^4 cells/1 ml medium/well; incubating the plate in an incubator of 5% CO2 for one day; and adding the III-121C sample to the cell cultures to observe the cell morphology for another two days.

[7] = tested on: K-ras-NRK cells; assay: Activity to induce changes in cell morphology, K-ras-NRK cells; format: cell-based, rat; settings: 0.3 μg/ml, 2 days
Experimental: as §3
K-ras-NRK is a transformed cell line, and the cells appear round with its central portion raised.

[8] = tested on: K-ras-NIH 3T3 cells; assay: Activity to induce changes in cell morphology, K-ras-NIH 3T3 cells; format: cell-based, mouse; settings: 0.3 μg/ml, 2 days
Experimental: as §1, §3
(§4) K-ras-NIH 3T3 and H-ras-NIH 3T3 are transformed cell lines, and the cells are elongated with projections or processes on their surface, and grow atop the other. N-ras-NIH 3T3 cells are also elongated and their projections or processes are even longer.

[9] = tested on: N-ras-NIH 3T3 cells; assay: Activity to induce changes in cell morphology, N-ras-NIH 3T3 cells; format: cell-based, mouse; settings: 0.3 μg/ml, 2 days
Experimental: as §1, §3, §4

[10] = tested on: RSV^ts-NRK cells; assay: Activity to induce changes in cell morphology, RSV^ts-NRK cells; format: cell-based, rat; settings: 0.3 μg/ml, 2 days
Experimental: as §1, §3
RSV^ts -NRK is a cell line that had been transformed with an src oncogene, and is temperature sensitive as in the case of K-ras^ts -NRK.

[11] = tested on: K-ras^ts-NRK cells; assay: Effect on production of actin filaments, K-ras^ts-NRK cells; format: cell-based, rat; settings: 1 μg/ml, one day
Experimental: (§5) A cover glass with a diameter of 18 mm (manufactured by Matsunami Glass Industry K.K.) that had been washed with 100% ethanol, dried, and sterilized was placed in wells of 12 wells plastic plate, and the cells were inoculated in the wells at 3.0×10^4 /DMEM 1 ml/well. The plate was incubated in an incubator of 5% CO2 for 1 day. To the thus incubated cell culture was added 1 μg/ml of III-121C, and the incubation was continued for another one day. The cell culture was then fixed with paraformaldehyde. The fixed cell culture was reacted with rhodamine pharoidine reagent (Molecular Probe Inc.) to examine the cell morphology by fluorescence microscope with G filter (excitation, 546 nm).

[12] = tested on: K-ras-NRK cells; assay: Effect on production of actin filaments, K-ras-NRK cells; format: cell-based, rat; settings: 1 μg/ml, one day
Experimental: as §5

[13] = tested on: K-ras-NIH 3T3 cells; assay: Effect on production of actin filaments, K-ras-NIH 3T3 cells; format: cell-based, mouse; settings: 1 μg/ml, one day
Experimental: as §5

[14] = tested on: H-ras-NIH 3T3 cells; assay: Effect on production of actin filaments, H-ras-NIH 3T3 cells; format: cell-based, mouse; settings: 1 μg/ml, one day
Experimental: as §5

[15] = tested on: K-ras^ts-NRK cells; assay: Action mechanism: morphology / M phase observation in K-ras^ts-NRK cells; format: cell-based, rat
Experimental: Before the addition of the III-121C, the cells grew atop the other and had projections or processes on their surface (FIG. 9(a)).
The procedure as described above was repeated by replacing the III-121C with 0.1 μg/ml of vinblastine, 0.1 μg/ml of vincristine and 0.1 μg/ml of colchicine, which are known as microtubule formation inhibitors.

[16] = tested on: K-ras-NRK cells; assay: Action mechanism: flow-cytometric DNA content analysis of K-ras-NRK cells; format: cell-based, rat; settings: 24 hours; III-121C 0.3 and 1 μg/ml, vinblastine 0.1 μg/ml (FIG. 11)
Experimental: FIGS. 11(a) to (d) are graphs showing the results of flow-cytometric analysis wherein the number of cells is depicted in relation to their DNA content, upon addition of no reagent (FIG. 11(a)), 0.3 μg/ml of III-121C (FIG. 11(b)), 1 μg/ml of III-121C (FIG. 11(c)), and 0.1 μg/ml of vinblastine (FIG. 11(d)) to the K-ras NRK cell culture.
To the cells of K-ras-NRK in their propagation was added either one of III-121C and vinblastine. No reagent was added to the control cells. After 24 hours from the addition, the cells were fractionated with a cell sorter to examine the DNA quantity in relation to the number of the cells.

CCC12CC(C(=O)OC)=C3Nc4cc5c(cc4C34CCN(CC3OC31)C42)C1C(O5)C(O)C2(CC)CC(C(=O)OC)=C3Nc4c(cc(O)c(OC)c4OC)C34CCN1C42 (stereo not drawn) [III-121C]
cell propagation inhibition (cell growth curve, FIG. 7) ([1]; K-ras^ts-NRK, 33° C., different concentrations): inhibited the cell propagation in concentration dependent manner | IC50 ([1]; 33° C.): 0.29 µg/mL (≈ 0.365 µM) | IC50 ([1]; 39° C.): 0.2 µg/mL (≈ 0.252 µM) | IC50 [2]: 0.4 µg/mL (≈ 0.503 µM) | IC50 [3]: 0.19 µg/mL (≈ 0.239 µM) | IC50 [4]: 0.4 µg/mL (≈ 0.503 µM) | IC50 [5]: 0.47 µg/mL (≈ 0.591 µM) | change in cell morphology and growth habits ([6]; 33° C., 0.3 μg/ml): the cells changed their morphology and growth habits to those of normal cells | change in cell morphology and growth habits ([6]; 39° C.): the cell morphology and growth habits were the same as the K-ras^ts -NRK cells that had been incubated in the absence of III-121C | change in cell morphology and growth habits [7]: the cells changed their morphology and growth habits to those of normal cells, and became flat with an increased area of contact | change in cell morphology and growth habits [8]: the cells changed their morphology and growth habits to those of normal NIH 3T3 cells, and became flat with an increased area of contact | change in cell morphology and growth habits [9]: the cells changed their morphology and growth habits to those of normal NIH 3T3 cells, and became flat with an increased area of contact | change in cell morphology ([10]; 33° C.): changed their cell morphology to have a rounded appearance similar to the morphology of the normal NRK-49 cells | change in cell morphology ([10]; 39° C.): changed their cell morphology to have a rounded appearance similar to the morphology of the normal NRK-49 cells | actin filaments / cell morphology [11]: morphology of normal cells with longitudinally extending linear actin filaments | actin filaments / cell morphology [12]: morphology of normal cells with longitudinally extending linear actin filaments | actin filaments / cell morphology [13]: morphology of normal cells with longitudinally extending linear actin filaments | actin filaments / cell morphology [14]: morphology of normal cells with longitudinally extending linear actin filaments | anti-ras activity ([15]; 1 μg/ml, 33° C.): has an anti-ras activity | change in cell morphology ([15]; 33° C., 1 μg/ml, after one day): the cells no longer grew atop the other and became flat | change in cell morphology and growth habits ([15]; 33° C., 1 μg/ml, after two days): such change in the cell morphology and growth habits were even more significant | cell division inhibitory activity ([15]; compared with microtubule inhibitors): free from the cell division inhibitory activity; also recorded: not associated with the cell division inhibitory action | cell cycle / cell division inhibition [16]: Absence of the cell division inhibitory activity | distribution of DNA quantity in cells [16]: distribution of the DNA quantity in the cells was identical with that of the control cells
